IC50 data for 21 compounds are collected here from US11814367B2, “Inhibitors of glycogen synthase 1 (GYS1) and methods of use thereof” (Maze Therapeutics, Inc., priority 2021, dated 2023).

The target in assay [1] is hGYS1 enzyme (recombinant hGYS1/GN1 protein) (Homo sapiens (Human), UniProt P13807). Put plainly: GYS1 coupled enzyme assay (PK/LDH). The assay is classed as biochemical. The conditions noted are these: hGYS1/GN1 50 nM, UDP-Glucose 0.8 mM, G6P 1 mM; geometric mean of at least 2 runs.
Assay [2] has as its system hGYS1 enzyme / glycogen synthesis in HeLa cells. Briefly: GYS1 cell based assay (glycogen synthesis, Glucose-glo). The arrangement: species or system human. The following applies: Homo sapiens, HeLa, 24 h, 24 h incubation, 20 mM glucose, geometric mean of at least 2 runs. In outline: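 HeLa cells starved 24 h in medium containing only 1× Glutamax were plated onto compound in medium with 20 mM glucose (1% DMSO final) for 24 h, 37 °C, 5% CO2. Acid lysates were Tris-quenched, glucoamylase-digested (pH 5.3, 1 h, 37 °C) and read by Glucose-glo luminescence. IC50 came from Hill fits, as geometric mean of ≥2 runs.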

Assay [3] deals with hGYS2 enzyme (recombinant hGYS2/GN1 protein) (Homo sapiens (Human), UniProt P54840). Put plainly: GYS2 coupled enzyme assay (PK/LDH). The assay is classed as biochemical. The following applies: geometric mean of at least 2 assay runs on separate days, read-out: Avg_IC50. In short, it runs like this: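 Continuous PK/LDH-coupled readout of NADH loss at 340 nm over 10 min, with 200 nM hGYS2/GN1 and 2 mM each of UDP-glucose, glucose-6-phosphate and PEP, in 50 mM Tris pH 7.5 with 0.2% glycogen and 2.5% DMSO. Slopes were normalized to controls and IC50s fit to a Hill curve from duplicates.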
Sequence of hGYS2 enzyme (recombinant hGYS2/GN1 protein) (P54840 whole entry): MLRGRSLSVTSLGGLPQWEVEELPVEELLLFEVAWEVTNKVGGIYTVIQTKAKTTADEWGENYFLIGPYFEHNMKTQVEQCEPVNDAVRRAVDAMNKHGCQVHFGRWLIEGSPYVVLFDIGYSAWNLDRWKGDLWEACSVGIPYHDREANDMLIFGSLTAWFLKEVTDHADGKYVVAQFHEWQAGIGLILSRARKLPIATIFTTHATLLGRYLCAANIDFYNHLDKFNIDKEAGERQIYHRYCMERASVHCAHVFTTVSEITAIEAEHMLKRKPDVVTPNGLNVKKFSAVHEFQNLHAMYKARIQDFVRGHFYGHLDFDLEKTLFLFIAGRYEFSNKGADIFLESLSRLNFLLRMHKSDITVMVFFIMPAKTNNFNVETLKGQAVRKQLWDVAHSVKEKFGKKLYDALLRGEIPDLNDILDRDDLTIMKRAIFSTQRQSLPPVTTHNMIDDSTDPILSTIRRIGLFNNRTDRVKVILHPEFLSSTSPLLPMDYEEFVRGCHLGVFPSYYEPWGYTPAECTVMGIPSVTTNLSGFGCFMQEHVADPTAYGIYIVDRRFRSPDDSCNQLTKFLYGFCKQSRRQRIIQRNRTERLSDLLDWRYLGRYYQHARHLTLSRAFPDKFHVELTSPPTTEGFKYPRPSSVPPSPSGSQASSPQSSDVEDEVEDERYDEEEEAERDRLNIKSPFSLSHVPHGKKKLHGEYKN
Sequence of hGYS2 enzyme (recombinant hGYS2/GN1 protein) (P46976 whole entry partner): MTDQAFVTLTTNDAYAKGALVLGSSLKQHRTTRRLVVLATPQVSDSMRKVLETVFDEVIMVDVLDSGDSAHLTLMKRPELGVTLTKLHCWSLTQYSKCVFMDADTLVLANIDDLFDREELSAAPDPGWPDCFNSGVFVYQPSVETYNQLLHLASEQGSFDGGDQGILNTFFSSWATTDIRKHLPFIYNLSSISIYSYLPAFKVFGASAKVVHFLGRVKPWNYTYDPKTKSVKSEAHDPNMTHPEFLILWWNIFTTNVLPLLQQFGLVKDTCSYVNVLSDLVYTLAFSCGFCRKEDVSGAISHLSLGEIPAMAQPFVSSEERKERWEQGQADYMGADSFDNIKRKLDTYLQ

Sequence of hGYS1 enzyme (recombinant hGYS1/GN1 protein) (P13807 whole entry): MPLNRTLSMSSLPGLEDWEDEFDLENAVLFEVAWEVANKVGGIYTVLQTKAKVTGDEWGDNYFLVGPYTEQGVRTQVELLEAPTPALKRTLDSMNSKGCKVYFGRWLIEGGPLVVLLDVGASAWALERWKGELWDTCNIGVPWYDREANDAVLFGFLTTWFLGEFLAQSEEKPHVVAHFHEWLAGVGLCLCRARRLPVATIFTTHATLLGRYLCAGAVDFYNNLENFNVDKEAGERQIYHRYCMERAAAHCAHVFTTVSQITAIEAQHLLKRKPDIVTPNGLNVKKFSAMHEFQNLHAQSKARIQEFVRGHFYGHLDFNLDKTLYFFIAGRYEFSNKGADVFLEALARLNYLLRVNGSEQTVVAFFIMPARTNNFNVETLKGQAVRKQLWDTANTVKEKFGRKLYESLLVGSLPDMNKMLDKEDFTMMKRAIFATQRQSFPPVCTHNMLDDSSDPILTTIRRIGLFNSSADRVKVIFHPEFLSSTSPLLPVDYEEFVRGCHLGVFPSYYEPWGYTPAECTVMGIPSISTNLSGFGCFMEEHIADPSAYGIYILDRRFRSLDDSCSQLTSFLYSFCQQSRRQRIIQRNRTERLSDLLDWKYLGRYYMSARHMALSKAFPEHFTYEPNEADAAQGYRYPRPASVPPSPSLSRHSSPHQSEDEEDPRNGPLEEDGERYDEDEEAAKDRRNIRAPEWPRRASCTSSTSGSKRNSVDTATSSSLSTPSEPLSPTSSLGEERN
Sequence of hGYS1 enzyme (recombinant hGYS1/GN1 protein) (P46976 whole entry partner): as the sequence (P46976 whole entry partner) above

For `CCN(CC)c1cnn(CC(=O)N2C[C@H](F)C[C@H]2C(=O)N[C@@H](c2ccccc2)c2ccc(C3CC3)c(F)n2)n1` [Compound 319, (2S,4R)-N-[(S)-(5-cyclopropyl-6-fluoropyridin-2-yl)(phenyl)methyl]-1-{2-[4-(diethylamino)-2H-1,2,3-triazol-2-yl]acetyl}-4-fluoropyrrolidine-2-carboxamide], the IC50 in assay [1] was 0.007 µM; in assay [2], 0.24 µM; in assay [3] it was above 100 µM.
The matching figures for `O=C(N[C@@H](c1ccccc1)c1ccc(C2CC2)c(F)n1)[C@@H]1[C@H]2C[C@H]2CN1C(=O)Cc1cnn[nH]1` [Compound 320, (1S,2S,5R)-N-[(S)-(5-cyclopropyl-6-fluoropyridin-2-yl)(phenyl)methyl]-3-[2-(1H-1,2,3-triazol-5-yl)acetyl]-3-azabicyclo[3.1.0]hexane-2-carboxamide]: 0.197 µM, 1.59 µM and above 100 µM.
For the compound `C[C@H]1CC[C@@H](C(=O)N[C@@H](c2ccccc2)c2ccc(C3CC3)c(F)n2)N1C(=O)Cc1cnn[nH]1` [Compound 321, (2S,5S)-N-[(S)-(5-cyclopropyl-6-fluoropyridin-2-yl)(phenyl)methyl]-5-methyl-1-[2-(1H-1,2,3-triazol-5-yl)acetyl]pyrrolidine-2-carboxamide], the IC50 in assay [1] is 0.124 µM; in assay [2], 1.24 µM; in assay [3] it was above 100 µM.
The matching figures for `CC(C)c1ccc([C@@H](NC(=O)[C@@H]2C[C@@H](F)CN2C(=O)Cn2nncc2C(F)(F)F)c2ccccc2)cc1F` [Compound 322, (2S,4R)-4-fluoro-N—((S)-(3-fluoro-4-isopropylphenyl)(phenyl)methyl)-1-(2-(5-(trifluoromethyl)-1H-1,2,3-triazol-1-yl)acetyl)pyrrolidine-2-carboxamide]: 0.013 µM, 0.29 µM and above 100 µM.
The matching figures for `CC(C)c1ccc([C@@H](NC(=O)[C@@H]2CC[C@H](C)N2C(=O)Cc2cnn[nH]2)c2ccccc2)cc1F` [Compound 323, (2S,5S)-N-[(S)-[3-fluoro-4-(propan-2-yl)phenyl](phenyl)methyl]-5-methyl-1-[2-(1H-1,2,3-triazol-5-yl)acetyl]pyrrolidine-2-carboxamide]: 0.074 µM, 0.9 µM and above 100 µM.
On the same counts, the results for `CC(C)c1ccc([C@@H](NC(=O)[C@@H]2C[C@@H](F)CN2C(=O)Cc2cnn[nH]2)c2ccccc2)cc1F` [Compound 326, (2S,4R)-4-fluoro-N-[(S)-[3-fluoro-4-(propan-2-yl)phenyl](phenyl)methyl]-1-[2-(1H-1,2,3-triazol-5-yl)acetyl]pyrrolidine-2-carboxamide] are 0.02 µM, 0.34 µM and above 100 µM.
Regarding `CC(C)c1ccc([C@@H](NC(=O)[C@@H]2C[C@@H](F)CN2C(=O)Cn2cnnn2)c2ccccc2)cc1F` [Compound 330, (2S,4R)-4-fluoro-N-[(S)-[3-fluoro-4-(propan-2-yl)phenyl](phenyl)methyl]-1-[2-(1H-1,2,3,4-tetrazol-1-yl)acetyl]pyrrolidine-2-carboxamide], the results for the IC50 in assay [1], in assay [2] and in assay [3] were 0.021 µM, 0.56 µM and above 100 µM, respectively.
`Cc1nnc(CC(=O)N2C[C@H](F)C[C@H]2C(=O)N[C@@H](c2ccccc2)c2ccc(C(C)C)c(F)c2)o1` [Compound 332, (2S,4R)-4-fluoro-N-[(S)-[3-fluoro-4-(propan-2-yl)phenyl](phenyl)methyl]-1-[2-(5-methyl-1,3,4-oxadiazol-2-yl)acetyl]pyrrolidine-2-carboxamide]: the results for the IC50 in assay [1], in assay [2] and in assay [3] were 0.025 µM, 0.27 µM and above 100 µM, respectively.
With `CC(C)c1ccc([C@@H](NC(=O)[C@@H]2C[C@@H](F)CN2C(=O)Cc2cnnn2C)c2ccccc2)cc1F` [Compound 335, (2S,4R)-4-fluoro-N-[(S)-[3-fluoro-4-(propan-2-yl)phenyl](phenyl)methyl]-1-[2-(1-methyl-1H-1,2,3-triazol-5-yl)acetyl]pyrrolidine-2-carboxamide], the IC50 in assay [1] is 0.037 µM; in assay [2], 0.45 µM; in assay [3] it was above 100 µM.
As for `CC(C)c1ccc([C@@H](NC(=O)[C@@H]2C[C@@H](F)CN2C(=O)Cc2cn(C)nn2)c2ccccc2)cc1F` [Compound 336], the IC50 in assay [1] was 0.015 µM; in assay [2] it was 0.28 µM; in assay [3], above 100 µM.
With `CC(C)c1ccc([C@@H](NC(=O)[C@@H]2C[C@@H](F)CN2C(=O)Cc2ccno2)c2ccccc2)cc1F` [Compound 338, (2S,4R)-4-fluoro-N-[(S)-[3-fluoro-4-(propan-2-yl)phenyl](phenyl)methyl]-1-[2-(1,2-oxazol-5-yl)acetyl]pyrrolidine-2-carboxamide], the IC50 is 0.034 µM in assay [1], 0.39 µM in assay [2] and above 100 µM in assay [3].
`CC(C)c1ccc([C@@H](NC(=O)[C@@H]2C[C@@H](F)CN2C(=O)CN2CC(=O)N(C)CC2=O)c2ccccc2)cc1F` [Compound 339, (2S,4R)-4-fluoro-N-[(S)-[3-fluoro-4-(propan-2-yl)phenyl](phenyl)methyl]-1-[2-(4-methyl-2,5-dioxopiperazin-1-yl)acetyl]pyrrolidine-2-carboxamide]: the results for the IC50 in assay [1], in assay [2] and in assay [3] were 0.018 µM, 0.31 µM and above 100 µM, respectively.
Take `CC(C)c1ccc([C@@H](NC(=O)[C@@H]2C[C@@H](F)[C@H](C)N2C(=O)Cc2cnn[nH]2)c2ccccc2)cc1F` [Compound 340, (2S,4R,5S)-4-fluoro-N-[(S)-[3-fluoro-4-(propan-2-yl)phenyl](phenyl)methyl]-5-methyl-1-[2-(1H-1,2,3-triazol-5-yl)acetyl]pyrrolidine-2-carboxamide]: the IC50 in assay [1] is 0.018 µM; in assay [2], 0.25 µM; in assay [3], above 100 µM.
On the same counts, the results for `CC(C)c1ccc([C@@H](NC(=O)[C@@H]2C[C@@H](F)CN2C(=O)Cc2ccnnc2)c2ccccc2)cc1F` [Compound 342, (2S,4R)-4-fluoro-N-[(S)-[3-fluoro-4-(propan-2-yl)phenyl](phenyl)methyl]-1-[2-(pyridazin-4-yl)acetyl]pyrrolidine-2-carboxamide] are 0.034 µM, 0.37 µM and above 100 µM.
On the same counts, the results for `CC(C)c1ccc([C@@H](NC(=O)[C@@H]2C[C@@H](F)CN2C(=O)Cc2cccnn2)c2ccccc2)cc1F` [Compound 343] are 0.027 µM, 0.46 µM and above 100 µM.
Consider `CC(C)c1ccc([C@@H](NC(=O)[C@@H]2C[C@@H](F)CN2C(=O)Cc2ccncc2)c2ccccc2)cc1F` [Compound 347, (2S,4R)-4-fluoro-N-[(S)-[3-fluoro-4-(propan-2-yl)phenyl](phenyl)methyl]-1-[2-(pyridin-4-yl)acetyl]pyrrolidine-2-carboxamide], for which the figures for the IC50 in assay [1], in assay [2] and in assay [3] were 0.03 µM, 0.4 µM and above 100 µM, respectively.
For the compound `CC(C)c1ccc([C@@H](NC(=O)[C@@H]2C[C@@H](F)CN2C(=O)Cc2cccnc2)c2ccccc2)cc1F` [Compound 348, (2S,4R)-4-fluoro-N-[(S)-[3-fluoro-4-(propan-2-yl)phenyl](phenyl)methyl]-1-[2-(pyridin-3-yl)acetyl]pyrrolidine-2-carboxamide], the IC50 in assay [1] was 0.024 µM; in assay [2], 0.27 µM; in assay [3], above 100 µM.
`CC(C)c1ccc([C@@H](NC(=O)[C@@H]2C[C@@H](F)CN2C(=O)Cc2ccccn2)c2ccccc2)cc1F` [Compound 349, (2S,4R)-4-fluoro-N-[(S)-[3-fluoro-4-(propan-2-yl)phenyl](phenyl)methyl]-1-[2-(pyridin-2-yl)acetyl]pyrrolidine-2-carboxamide]: the IC50 was 0.025 µM in assay [1], 0.4 µM in assay [2] and above 100 µM in assay [3].
The matching figures for `Cc1nn(C)c(C)c1CC(=O)N1C[C@H](F)C[C@H]1C(=O)N[C@@H](c1ccccc1)c1ccc(C(C)C)c(F)c1` [Compound 351, (2S,4R)-4-fluoro-N-[(S)-[3-fluoro-4-(propan-2-yl)phenyl](phenyl)methyl]-1-[2-(1,3,5-trimethyl-1H-pyrazol-4-yl)acetyl]pyrrolidine-2-carboxamide]: 0.008 µM, 0.13 µM and above 100 µM.
For `Cc1cn(CC(=O)N2C[C@H](F)C[C@H]2C(=O)N[C@@H](c2ccccc2)c2ccc(C(C)C)c(F)c2)c(=O)[nH]c1=O` [Compound 352, (2S,4R)-4-fluoro-N-[(S)-[3-fluoro-4-(propan-2-yl)phenyl](phenyl)methyl]-1-[2-(5-methyl-2,4-dioxo-1,2,3,4-tetrahydropyrimidin-1-yl)acetyl]pyrrolidine-2-carboxamide], the results for the IC50 in assay [1], in assay [2] and in assay [3] were 0.005 µM, 0.11 µM and above 100 µM, respectively.
The matching figures for `Cc1cn(CC(=O)N2C[C@H](F)C[C@H]2C(=O)N[C@@H](c2ccccc2)c2ccc(C(C)C)c(F)c2)c(=O)n(C)c1=O` [Compound 353, (2S,4R)-1-[2-(3,5-dimethyl-2,4-dioxo-1,2,3,4-tetrahydropyrimidin-1-yl)acetyl]-4-fluoro-N-[(S)-[3-fluoro-4-(propan-2-yl)phenyl](phenyl)methyl] pyrrolidine-2-carboxamide]: 0.007 µM, 0.09 µM and above 100 µM.
